Measurements published in US9084828B2, “Oligomer-protein tyrosine kinase inhibitor conjugates” (Nektar Therapeutics, priority 2009, dated 2015).

What was measured:
Format in all cases: biochemical
[1] = target: MAPKAPK3 (Homo sapiens, UniProt Q16644); assay: Activity against various protein tyrosine kinases: MAPKAPK3
[2] = target: T1, AurC (Homo sapiens, UniProt Q9UQB9); assay: Activity against various protein tyrosine kinases: AurC
T1 sequence (Q9UQB9 1-309): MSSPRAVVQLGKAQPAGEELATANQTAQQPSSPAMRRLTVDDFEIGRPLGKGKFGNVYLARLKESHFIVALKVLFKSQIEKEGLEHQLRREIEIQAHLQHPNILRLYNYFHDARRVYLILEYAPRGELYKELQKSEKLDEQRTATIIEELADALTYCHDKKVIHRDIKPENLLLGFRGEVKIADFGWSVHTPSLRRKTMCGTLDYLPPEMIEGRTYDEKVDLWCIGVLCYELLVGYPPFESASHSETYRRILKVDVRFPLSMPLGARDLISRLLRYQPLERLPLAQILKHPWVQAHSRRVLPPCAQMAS

[3] = target: FYN (Homo sapiens, UniProt P06241); assay: Activity against various protein tyrosine kinases: FYN
[4] = target: MSK1 (Homo sapiens, UniProt O75582); assay: Activity against various protein tyrosine kinases: MSK1
Chain of MSK1 (O75582 whole entry, species assumed): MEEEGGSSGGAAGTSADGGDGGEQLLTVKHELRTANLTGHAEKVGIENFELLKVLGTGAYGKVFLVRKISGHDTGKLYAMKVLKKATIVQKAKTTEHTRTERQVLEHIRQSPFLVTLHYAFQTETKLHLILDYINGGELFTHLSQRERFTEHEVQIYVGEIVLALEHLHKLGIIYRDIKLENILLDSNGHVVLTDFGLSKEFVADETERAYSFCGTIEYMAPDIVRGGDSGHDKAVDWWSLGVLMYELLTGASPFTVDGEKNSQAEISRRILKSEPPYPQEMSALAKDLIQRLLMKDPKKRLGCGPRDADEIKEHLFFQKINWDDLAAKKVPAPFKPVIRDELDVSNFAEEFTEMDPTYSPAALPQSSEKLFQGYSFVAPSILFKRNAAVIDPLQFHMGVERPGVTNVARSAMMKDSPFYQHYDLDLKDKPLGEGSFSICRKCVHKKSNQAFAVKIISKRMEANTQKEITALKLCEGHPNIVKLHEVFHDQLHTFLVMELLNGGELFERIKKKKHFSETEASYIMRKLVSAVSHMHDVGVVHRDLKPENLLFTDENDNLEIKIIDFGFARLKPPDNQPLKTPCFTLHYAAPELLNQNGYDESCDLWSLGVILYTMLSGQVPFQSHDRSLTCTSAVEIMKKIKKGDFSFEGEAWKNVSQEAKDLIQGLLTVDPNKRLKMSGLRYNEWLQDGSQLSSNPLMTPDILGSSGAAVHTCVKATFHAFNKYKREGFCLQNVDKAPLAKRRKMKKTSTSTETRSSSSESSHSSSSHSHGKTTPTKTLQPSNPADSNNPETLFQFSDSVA

[5] = target: T2, AurA (Homo sapiens, UniProt O14965); assay: Activity against various protein tyrosine kinases: AurA
T2 sequence (O14965 1-403): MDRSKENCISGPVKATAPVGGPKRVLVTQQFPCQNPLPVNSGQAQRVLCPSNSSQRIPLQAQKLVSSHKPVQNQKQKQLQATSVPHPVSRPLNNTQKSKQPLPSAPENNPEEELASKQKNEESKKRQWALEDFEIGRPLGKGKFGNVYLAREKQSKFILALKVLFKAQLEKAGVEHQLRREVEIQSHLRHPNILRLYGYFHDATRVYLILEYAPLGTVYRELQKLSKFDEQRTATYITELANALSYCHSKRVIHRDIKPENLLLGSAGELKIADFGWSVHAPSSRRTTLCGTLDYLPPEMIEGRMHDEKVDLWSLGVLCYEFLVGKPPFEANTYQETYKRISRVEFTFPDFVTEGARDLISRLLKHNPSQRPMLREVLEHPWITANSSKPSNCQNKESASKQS

[6] = target: T3, PRAK (Homo sapiens, UniProt Q8IW41); assay: Activity against various protein tyrosine kinases: PRAK
T3 sequence (Q8IW41 1-473): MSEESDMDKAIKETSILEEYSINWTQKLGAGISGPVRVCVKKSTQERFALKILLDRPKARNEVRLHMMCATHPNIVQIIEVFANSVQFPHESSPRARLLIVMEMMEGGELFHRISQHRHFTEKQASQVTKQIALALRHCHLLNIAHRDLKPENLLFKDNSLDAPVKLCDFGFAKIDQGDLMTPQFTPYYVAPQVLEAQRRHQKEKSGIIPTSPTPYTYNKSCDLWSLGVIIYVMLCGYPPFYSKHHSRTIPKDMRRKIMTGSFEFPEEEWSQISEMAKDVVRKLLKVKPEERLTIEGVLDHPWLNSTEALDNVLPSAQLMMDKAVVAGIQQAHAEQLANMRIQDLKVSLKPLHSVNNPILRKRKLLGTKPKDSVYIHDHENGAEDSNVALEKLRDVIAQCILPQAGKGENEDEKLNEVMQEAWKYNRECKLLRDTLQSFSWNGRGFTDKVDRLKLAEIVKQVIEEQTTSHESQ

[7] = target: PKA (Homo sapiens, UniProt P17612); assay: Activity against various protein tyrosine kinases: PKA
[8] = target: ABL (Homo sapiens, UniProt P00519); assay: Activity against various protein tyrosine kinases: ABL; set-up: purchased MILLIPORE 14-529
Chain of ABL (P00519 whole entry): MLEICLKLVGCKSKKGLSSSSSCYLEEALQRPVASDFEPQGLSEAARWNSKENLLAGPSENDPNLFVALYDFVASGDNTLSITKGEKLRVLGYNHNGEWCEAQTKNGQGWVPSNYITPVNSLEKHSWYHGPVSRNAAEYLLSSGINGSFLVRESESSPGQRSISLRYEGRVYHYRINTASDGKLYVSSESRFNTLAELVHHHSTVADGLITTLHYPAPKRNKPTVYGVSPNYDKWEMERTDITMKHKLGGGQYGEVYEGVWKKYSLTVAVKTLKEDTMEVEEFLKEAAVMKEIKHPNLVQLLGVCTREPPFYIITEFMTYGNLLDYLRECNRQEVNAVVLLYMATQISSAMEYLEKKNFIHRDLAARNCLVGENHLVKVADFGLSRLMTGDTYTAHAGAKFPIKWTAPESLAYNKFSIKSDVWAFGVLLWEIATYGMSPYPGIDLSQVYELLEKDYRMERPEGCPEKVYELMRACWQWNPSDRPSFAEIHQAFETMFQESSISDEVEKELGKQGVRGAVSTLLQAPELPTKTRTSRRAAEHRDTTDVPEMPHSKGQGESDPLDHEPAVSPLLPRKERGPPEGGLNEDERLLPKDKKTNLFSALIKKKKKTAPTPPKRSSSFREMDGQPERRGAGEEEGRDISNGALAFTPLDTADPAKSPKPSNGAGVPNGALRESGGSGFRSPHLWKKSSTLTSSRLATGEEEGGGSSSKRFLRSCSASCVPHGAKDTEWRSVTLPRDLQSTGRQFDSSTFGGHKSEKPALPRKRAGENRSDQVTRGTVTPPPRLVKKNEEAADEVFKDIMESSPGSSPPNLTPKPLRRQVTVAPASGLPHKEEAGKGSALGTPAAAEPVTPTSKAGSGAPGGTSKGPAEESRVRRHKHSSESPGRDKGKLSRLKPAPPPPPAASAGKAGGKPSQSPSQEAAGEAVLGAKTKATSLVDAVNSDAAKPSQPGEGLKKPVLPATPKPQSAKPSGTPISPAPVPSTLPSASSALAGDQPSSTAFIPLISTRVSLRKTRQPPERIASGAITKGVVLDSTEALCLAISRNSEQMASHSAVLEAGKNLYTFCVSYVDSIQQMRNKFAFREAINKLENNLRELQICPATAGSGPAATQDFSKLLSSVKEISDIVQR
Experimental: Using techniques know those of ordinary skill in the art, compounds were tested for activity against various protein tyrosine kinases.

[9] = target: CaMKII (gamma) (Homo sapiens, UniProt Q13555); assay: Activity against various protein tyrosine kinases: CaMKII (gamma)
[10] = target: T4, IKK-beta (Homo sapiens, UniProt O14920); assay: Activity against various protein tyrosine kinases: IKK-beta
T4 sequence (O14920 1-756): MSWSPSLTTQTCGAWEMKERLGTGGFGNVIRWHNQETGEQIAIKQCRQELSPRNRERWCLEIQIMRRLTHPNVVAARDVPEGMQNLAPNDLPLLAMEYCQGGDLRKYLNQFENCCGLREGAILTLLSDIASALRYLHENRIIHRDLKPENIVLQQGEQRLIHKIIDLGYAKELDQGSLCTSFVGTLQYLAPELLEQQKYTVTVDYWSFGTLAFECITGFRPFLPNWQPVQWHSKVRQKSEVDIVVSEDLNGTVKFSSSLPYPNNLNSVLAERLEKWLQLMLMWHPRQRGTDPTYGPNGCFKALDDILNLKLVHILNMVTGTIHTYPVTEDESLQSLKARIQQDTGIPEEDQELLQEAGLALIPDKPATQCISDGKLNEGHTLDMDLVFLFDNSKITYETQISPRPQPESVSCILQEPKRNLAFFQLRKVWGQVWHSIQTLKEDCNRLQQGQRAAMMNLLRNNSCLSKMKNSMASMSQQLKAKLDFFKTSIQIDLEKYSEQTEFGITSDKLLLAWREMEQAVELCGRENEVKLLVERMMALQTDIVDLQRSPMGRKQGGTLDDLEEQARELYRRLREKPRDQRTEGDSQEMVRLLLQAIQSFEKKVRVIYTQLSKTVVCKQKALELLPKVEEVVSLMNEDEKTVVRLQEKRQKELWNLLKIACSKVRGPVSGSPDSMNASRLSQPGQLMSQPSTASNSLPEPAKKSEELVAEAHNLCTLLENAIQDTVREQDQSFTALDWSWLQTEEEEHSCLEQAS

[11] = target: PDGFR_beta (Homo sapiens, UniProt P09619); assay: Activity against various protein tyrosine kinases: PDGFR_beta
Chain of PDGFR_beta (P09619 33-1106, species assumed): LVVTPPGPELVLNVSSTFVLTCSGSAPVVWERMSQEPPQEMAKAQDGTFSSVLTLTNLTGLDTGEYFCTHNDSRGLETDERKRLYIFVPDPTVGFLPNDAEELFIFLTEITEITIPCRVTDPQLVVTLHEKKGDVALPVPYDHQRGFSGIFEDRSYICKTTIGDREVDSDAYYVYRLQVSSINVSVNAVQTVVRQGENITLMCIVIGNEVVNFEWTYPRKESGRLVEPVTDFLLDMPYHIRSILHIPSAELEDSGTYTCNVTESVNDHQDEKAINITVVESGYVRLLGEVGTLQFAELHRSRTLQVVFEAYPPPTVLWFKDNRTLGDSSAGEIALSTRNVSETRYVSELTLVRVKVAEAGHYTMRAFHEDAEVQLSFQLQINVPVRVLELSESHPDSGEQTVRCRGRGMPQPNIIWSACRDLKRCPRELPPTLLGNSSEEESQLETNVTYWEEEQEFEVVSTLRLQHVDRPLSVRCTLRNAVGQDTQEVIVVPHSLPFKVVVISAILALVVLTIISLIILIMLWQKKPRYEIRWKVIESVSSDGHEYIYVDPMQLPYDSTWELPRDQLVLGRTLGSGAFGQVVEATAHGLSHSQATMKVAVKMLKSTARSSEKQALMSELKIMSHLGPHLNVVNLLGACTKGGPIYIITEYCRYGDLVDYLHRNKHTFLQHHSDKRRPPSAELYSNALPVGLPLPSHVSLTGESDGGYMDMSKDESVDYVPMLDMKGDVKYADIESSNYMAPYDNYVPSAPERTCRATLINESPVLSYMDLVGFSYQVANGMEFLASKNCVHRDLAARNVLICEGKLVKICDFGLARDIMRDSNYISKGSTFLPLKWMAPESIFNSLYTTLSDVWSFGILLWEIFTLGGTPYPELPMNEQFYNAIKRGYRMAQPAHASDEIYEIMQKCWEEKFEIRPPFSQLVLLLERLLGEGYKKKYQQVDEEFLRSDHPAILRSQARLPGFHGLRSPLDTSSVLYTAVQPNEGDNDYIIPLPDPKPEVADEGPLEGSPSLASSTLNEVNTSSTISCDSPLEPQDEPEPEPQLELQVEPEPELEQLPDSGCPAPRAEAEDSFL

[12] = target: CK1d (Homo sapiens, UniProt P48730); assay: Activity against various protein tyrosine kinases: CK1d
Chain of CK1d (P48730 whole entry): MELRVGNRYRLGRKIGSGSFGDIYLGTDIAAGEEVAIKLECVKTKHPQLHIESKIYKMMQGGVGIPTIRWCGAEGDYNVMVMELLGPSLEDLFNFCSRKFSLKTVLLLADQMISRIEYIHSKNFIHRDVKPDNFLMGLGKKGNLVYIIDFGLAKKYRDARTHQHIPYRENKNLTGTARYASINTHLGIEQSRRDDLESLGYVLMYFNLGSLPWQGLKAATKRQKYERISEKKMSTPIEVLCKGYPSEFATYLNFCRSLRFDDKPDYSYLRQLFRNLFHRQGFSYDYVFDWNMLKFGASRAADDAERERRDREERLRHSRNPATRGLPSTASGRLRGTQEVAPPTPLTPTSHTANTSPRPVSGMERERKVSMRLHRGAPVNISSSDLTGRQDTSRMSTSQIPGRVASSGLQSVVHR

[13] = target: GSK3b (Homo sapiens, UniProt P49841); assay: Activity against various protein tyrosine kinases: GSK3b
Chain of GSK3b (P49841 whole entry, species assumed): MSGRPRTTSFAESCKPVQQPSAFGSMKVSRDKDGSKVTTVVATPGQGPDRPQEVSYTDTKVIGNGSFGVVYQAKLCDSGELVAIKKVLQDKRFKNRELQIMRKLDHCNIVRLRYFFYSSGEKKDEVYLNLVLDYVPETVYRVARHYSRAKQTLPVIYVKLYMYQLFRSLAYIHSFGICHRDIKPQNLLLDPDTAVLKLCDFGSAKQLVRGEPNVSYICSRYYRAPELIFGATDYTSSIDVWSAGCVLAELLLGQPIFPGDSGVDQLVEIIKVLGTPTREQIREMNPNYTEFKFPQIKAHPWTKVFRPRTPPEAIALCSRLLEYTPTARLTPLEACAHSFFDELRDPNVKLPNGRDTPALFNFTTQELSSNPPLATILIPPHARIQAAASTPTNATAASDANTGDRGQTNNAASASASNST

[14] = target: Fer (Homo sapiens, UniProt P16591); assay: Activity against various protein tyrosine kinases: Fer
Chain of Fer (P16591 whole entry, species assumed): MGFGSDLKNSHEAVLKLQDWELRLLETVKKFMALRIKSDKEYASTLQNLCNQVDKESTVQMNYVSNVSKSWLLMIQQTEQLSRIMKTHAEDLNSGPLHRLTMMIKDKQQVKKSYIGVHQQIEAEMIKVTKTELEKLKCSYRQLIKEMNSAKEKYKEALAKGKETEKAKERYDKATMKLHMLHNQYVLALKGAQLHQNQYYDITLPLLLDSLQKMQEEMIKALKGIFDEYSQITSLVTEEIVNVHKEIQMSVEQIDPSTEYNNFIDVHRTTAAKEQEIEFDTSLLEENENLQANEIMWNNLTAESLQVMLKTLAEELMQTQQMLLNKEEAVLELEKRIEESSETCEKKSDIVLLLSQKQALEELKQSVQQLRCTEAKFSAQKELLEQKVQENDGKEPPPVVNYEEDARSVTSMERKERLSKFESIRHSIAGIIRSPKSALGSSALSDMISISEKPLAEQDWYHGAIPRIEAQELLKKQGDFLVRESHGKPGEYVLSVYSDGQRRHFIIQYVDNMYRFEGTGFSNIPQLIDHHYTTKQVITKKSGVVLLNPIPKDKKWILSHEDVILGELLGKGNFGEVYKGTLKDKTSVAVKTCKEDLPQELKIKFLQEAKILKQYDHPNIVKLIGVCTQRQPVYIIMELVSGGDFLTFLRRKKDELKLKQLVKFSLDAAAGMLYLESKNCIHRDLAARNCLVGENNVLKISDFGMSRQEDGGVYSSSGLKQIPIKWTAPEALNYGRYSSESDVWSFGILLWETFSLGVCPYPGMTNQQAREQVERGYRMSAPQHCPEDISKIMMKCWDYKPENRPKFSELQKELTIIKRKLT

Chain of MAPKAPK3 (Q16644 whole entry, species assumed): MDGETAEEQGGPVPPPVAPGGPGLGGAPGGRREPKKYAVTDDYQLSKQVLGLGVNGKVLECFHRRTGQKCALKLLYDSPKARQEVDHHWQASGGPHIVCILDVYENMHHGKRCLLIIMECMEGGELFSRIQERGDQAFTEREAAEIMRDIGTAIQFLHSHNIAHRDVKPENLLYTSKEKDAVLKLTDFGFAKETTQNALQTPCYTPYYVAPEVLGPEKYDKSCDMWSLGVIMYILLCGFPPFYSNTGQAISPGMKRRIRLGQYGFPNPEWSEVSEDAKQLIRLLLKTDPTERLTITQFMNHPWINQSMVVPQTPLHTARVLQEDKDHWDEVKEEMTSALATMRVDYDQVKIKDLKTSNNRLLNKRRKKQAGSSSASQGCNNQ

| SMILES | % Inhibition at 10 nM [1] [%] | % Inhibition at 1 μM [1] [%] | % Inhibition at 10 nM [2] [%] | % Inhibition at 1 μM [2] [%] | % Inhibition at 10 nM [3] [%] | % Inhibition at 1 μM [3] [%] | % Inhibition at 10 nM [4] [%] | % Inhibition at 1 μM [4] [%] | % Inhibition at 10 nM [5] [%] | % Inhibition at 1 μM [5] [%] | % Inhibition at 10 nM [6] [%] | % Inhibition at 1 μM [6] [%] | % Inhibition at 10 nM [7] [%] | % Inhibition at 1 μM [7] [%] | % Inhibition at 10 nM [8] [%] | % Inhibition at 1 μM [8] [%] | % Inhibition at 10 nM [9] [%] | % Inhibition at 1 μM [9] [%] | % Inhibition at 10 nM [10] [%] | % Inhibition at 1 μM [10] [%] | other results |
| --- | --- | --- | --- | --- | --- | --- | --- | --- | --- | --- | --- | --- | --- | --- | --- | --- | --- | --- | --- | --- | --- |
| COCCOCCOCCNC(=O)OCCN1CCN(c2cc(Nc3ncc(C(=O)Nc4c(C)cccc4Cl)s3)nc(C)n2)CC1 [mPEG3-NHCOO-Dasatinib] | 5 | 3 | −1 | 0 | 98 | 99 | 2 | 1 | −7 | 19 | 6 | 4 | 3 | 0 | 99 | 99 | 2 | 2 | 0 | 1 | % Inhibition at 10 nM [11]: 48%; % Inhibition at 1 μM [11]: 99%; % Inhibition at 10 nM [12]: 1%; % Inhibition at 1 μM [12]: 3%; % Inhibition at 10 nM [13]: 4%; % Inhibition at 1 μM [13]: 1%; % Inhibition at 10 nM [14]: −4%; % Inhibition at 1 μM [14]: 5% |
| COCCOCCOCCOCCOCCOCCOCCNC(=O)OCCN1CCN(c2cc(Nc3ncc(C(=O)Nc4c(C)cccc4Cl)s3)nc(C)n2)CC1 [mPEG7-NHCOO-Dasatinib] | 1 | 0 | 0 | 2 | 98 | 98 | 3 | 5 | 3 | 28 | 8 | 0 | 0 | 2 | 99 | 99 | 6 | 3 | 2 | 2 | % Inhibition at 10 nM [11]: 60%; % Inhibition at 1 μM [11]: 100%; % Inhibition at 10 nM [12]: 0%; % Inhibition at 1 μM [12]: 9%; % Inhibition at 10 nM [13]: 3%; % Inhibition at 1 μM [13]: 2%; % Inhibition at 10 nM [14]: −2%; % Inhibition at 1 μM [14]: 5% |
